Among the data in US11883387B2, “PqsR inverse agonists” (HELMHOLTZ-ZENTRUM FÜR INFEKTIONSFORSCHUNG GMBH, priority 2018, dated 2024) are IC50, half-life and solubility values, retold here.

Series [1] has as its system P. aeruginosa pyocyanin production. Description: Pyocyanin assay. The format is cell-based, P. aeruginosa PA14. As to conditions: Pseudomonas aeruginosa, PA14, 16 h, read-out: IC50-value towards pyocyanin production, PA14 in PPGAS medium, 16 h. The method, boiled down: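 PA14 in PPGAS medium from OD600 0.02 grown 16 h at 37 °C, 200 rpm, with compounds. Pyocyanin extracted with chloroform, back-extracted into 0.2 M HCl, OD520 normalised to OD600.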

A short description of series [2]: Metabolic stability in mouse liver microsomes (MLM). The series is classed as in vitro ADME. As to conditions: 1 μM compound, 0.5 mg/mL MLM, 1 mM NADPH, 37° C., read-out: half-life (t1/2) towards MLM. As to the method:
For the evaluation of phase I metabolic stability, the compound (1 μM) was incubated with 0.5 mg/mL MLM (Corning) and 1 mM NADPH at 37° C. for 0, 5, 10, 15 and 30 min. The metabolic stability of Verapamil, Diphenhydramine and Benzydamine (1 μM each) were determined in parallel to confirm the enzymatic activity of the MLM. The incubation was stopped by addition of 2 volumes of acetonitrile containing internal standard (1 μM Leucine Enkephaline). Samples were centrifuged (15 min, 3,500 rpm). Concentration of the remaining test compound at the different time points was analyzed by HPLC-MS/MS and used to determine half-life (t1/2).
In general terms: Liver microsomes are vesicles of endoplasmic reticulum, rich in cytochrome P450 enzymes.

The next series concerns the target PqsR (Pseudomonas aeruginosa, UniProt Q9I4X0). Briefly: E. coli based β-galactosidase reporter gene assay (PqsR inverse agonistic activity). The series is classed as cell-based. Details: expressed in transfected cells; host or cells: Escherichia coli DH5α. The procedure, abridged:
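E. coli DH5α carrying pEAL08-2 (tac-driven pqsR with pqsA-lacZ) was grown to OD600 0.2 and incubated with 0.001–10 μM compound plus 50 nM PQS for 2.5 h at 37 °C. β-Galactosidase activity was measured by ONPG conversion in permeabilized cells and normalized between the no-PQS and solvent controls. IC50 came from concentration variation.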

A short description of series [3]: Kinetic Turbidimetric Aqueous Solubility at room temperature for 5 min. Conditions: PBS buffer, kinetic from dmso stock, 2% DMSO. The format is physicochemical. As to the method: Kinetic Turbidimetric Aqueous Solubility at room temperature for 5 min. Test compound was diluted in PBS buffer to give a range of concentrations (typically 0.4, 2, 4, 20, 40, 100, and 200 μM, final DMSO concentration 2%) and incubated at room temperature for 5 min. Absorbance was measured at a wavelength of 620 nm and the solubility was estimated from the concentration of test compound that produces an increase in absorbance above the vehicle control (i.e., […]). Data was analyzed by fitting a four parameter sigmoidal function to the measured and normalized absorbances and AUC calculation providing access to Log S (decadic logarithm of the solubility).

Each structure is given as a SMILES string.

Chain of PqsR (Q9I4X0 whole entry): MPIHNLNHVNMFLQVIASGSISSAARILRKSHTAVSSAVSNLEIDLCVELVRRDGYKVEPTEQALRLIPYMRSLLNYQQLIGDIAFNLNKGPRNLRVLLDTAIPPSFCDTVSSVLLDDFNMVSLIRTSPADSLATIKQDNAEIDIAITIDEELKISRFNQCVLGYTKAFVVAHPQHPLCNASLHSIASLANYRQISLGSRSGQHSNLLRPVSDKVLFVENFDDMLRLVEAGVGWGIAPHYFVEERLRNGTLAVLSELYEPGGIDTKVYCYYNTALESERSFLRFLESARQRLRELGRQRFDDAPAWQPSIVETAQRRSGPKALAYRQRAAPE

As to `FC(F)(F)c1cc(NCc2cn(-c3ccc(Oc4ccccc4)cc3)nn2)cc(I)n1` [Compound 007, 2-Iodo-N-((1-(4-phenoxyphenyl)-1H-1,2,3-triazol-4-yl)methyl)-6-(trifluoromethyl)pyridin-4-amine], the half-maximal inhibitory concentration (IC50) in series [1] was 0.251 to 1 µM; at PqsR it was at most 0.05 µM. Moreover, the half-life at 1 μM in series [2] was in the range of 0.517 to 1 h.

For `FC(F)(F)c1cc(NCc2cn(-c3ccc(Oc4cccc(Cl)c4)cc3)nn2)ccn1` [Compound 030, N-((1-(4-(3-Chlorophenoxy)phenyl)-1H-1,2,3-triazol-4-yl)methyl)-2-(trifluoromethyl)pyridin-4-amine], the half-life at 1 μM in series [2] is over 1 h. Moreover, the half-maximal inhibitory concentration (IC50) on PqsR was at most 0.05 µM.

For the compound `FC(F)(F)c1cc(NCc2cn(-c3ccc(Oc4ccccc4)cc3)nn2)cc(Cl)n1` [Compound 032, 2-Chloro-N-((1-(4-phenoxyphenyl)-1H-1,2,3-triazol-4-yl)methyl)-6-(trifluoromethyl)pyridin-4-amine], in series [2], the half-life at 1 μM is over 1 h. The compound further yielded an IC50 at PqsR of at most 0.05 µM.

Regarding `FC(F)(F)c1cc(NCc2cn(-c3ccc(Oc4ccc(Cl)cc4)cc3)nn2)ccn1` [Compound 037, N-((1-(4-(4-Chlorophenoxy)phenyl)-1H-1,2,3-triazol-4-yl)methyl)-2-(trifluoromethyl)pyridin-4-amine], the half-life at 1 μM in series [2] was over 1 h. The compound further had a solubility at 5 min in series [3] of over 10 µM. Also, the IC50 on PqsR was at most 0.05 µM.

Regarding `FC(F)(F)c1cc(NCc2cn(-c3ccc(Br)cc3)nn2)ccn1` [Compound 039, N-((1-(4-Bromophenyl)-1H-1,2,3-triazol-4-yl)methyl)-2-(trifluoromethyl)pyridin-4-amine], in series [2], the half-life at 1 μM fell in the range of 0.517 to 1 h. This compound gave a solubility at 5 min in series [3] of over 50 µM. Also, the concentration for half-maximal inhibition (IC50) at PqsR is 0.251 to 1 µM.

For the compound `N#Cc1cc(NCc2cn(-c3ccc(Oc4ccccc4)cc3)nn2)ccn1` [Compound 041, 4-(((1-(4-Phenoxyphenyl)-1H-1,2,3-triazol-4-yl)methyl)amino)picolinonitrile], the half-life at 1 μM in series [2] is 0.517 to 1 h. The solubility at 5 min in series [3] is over 10 µM. At PqsR, this compound displayed an IC50 of at most 0.05 µM.

On to `Clc1cc(NCc2cn(-c3ccc(Oc4ccccc4)cc3)nn2)cc(Cl)n1` [Compound 048, 2,6-Dichloro-N-((1-(4-phenoxyphenyl)-1H-1,2,3-triazol-4-yl)methyl)pyridin-4-amine], for which the concentration for half-maximal inhibition (IC50) in series [1] is at most 0.25 µM; at PqsR it was at most 0.05 µM. In addition, in series [2], the half-life at 1 μM was 0.517 to 1 h.

In the case of `O=C(c1ccccc1)c1ccc(-n2cc(CSc3ccnc(C(F)(F)F)c3)nn2)cc1` [Compound 057, Phenyl(4-(4-(((2-(trifluoromethyl)pyridin-4-yl)thio)methyl)-1H-1,2,3-triazol-1-yl)phenyl)methanone], the half-life at 1 μM in series [2] is over 1 h. The same compound displayed a concentration for half-maximal inhibition (IC50) at PqsR of 0.051 to 0.25 µM.

Turning to `Nc1cc(SCc2cnc(-c3ccc(Oc4ccccc4)cc3)s2)nc(C(F)(F)F)n1` [Compound 068, 6-(((2-(4-phenoxyphenyl)thiazol-5-yl)methyl)thio)-2-(trifluoromethyl)pyrimidin-4-amine], in series [2], the half-life at 1 μM is over 1 h. This compound also gave a solubility at 5 min in series [3] of over 10 µM.

Take `COc1ccc(-c2ncc(CSc3cc(N)nc(C(F)(F)F)n3)s2)cc1Cl` [Compound 069, 6-(((2-(3-chloro-4-methoxyphenyl)thiazol-5-yl)methyl)thio)-2-(trifluoromethyl) pyrimidin-4-amine]: the half-life at 1 μM in series [2] was over 1 h. In series [3], the solubility at 5 min was over 25 µM.

Regarding `Fc1ccc(Oc2ccc(-c3nc(CNc4ccnc(C(F)(F)F)c4)cs3)cn2)cc1` [Compound 083, N-((2-(6-(4-Fluorophenoxy)pyridin-3-yl)thiazol-4-yl)methyl)-2-(trifluoromethyl)pyridin-4-amine], in series [2], the half-life at 1 μM is over 1 h. The compound further gave an IC50 on PqsR of 0.051 to 0.25 µM.

Regarding `Fc1ccc(Oc2ccc(-c3nc(CNc4ccnc(C(F)(F)F)c4)cs3)cc2)cc1` [Compound 088, N-((2-(4-(4-Fluorophenoxy)phenyl)thiazol-4-yl)methyl)-2-(trifluoromethyl)pyridin-4-amine], the half-life at 1 μM in series [2] is over 1 h. On PqsR, this compound showed an IC50 of at most 0.05 µM.

Consider `FC(F)(F)c1cc(NCc2cnc(-c3ccc(Oc4ccccc4)cc3)s2)cc(Cl)n1` [Compound 092, 2-Chloro-N-((2-(4-phenoxyphenyl)thiazol-5-yl)methyl)-6-(trifluoromethyl)pyridin-4-amine], for which the IC50 is 0.251 to 1 µM in series [1] and at most 0.05 µM on PqsR. Further, the half-life at 1 μM in series [2] is 0.517 to 1 h.

Regarding `Clc1cc(NCc2cnc(-c3ccc(Oc4ccccc4)cc3)s2)ccn1` [Compound 093, 2-Chloro-N-((2-(4-phenoxyphenyl)thiazol-5-yl)methyl)pyridin-4-amine], the results for the IC50 (in series [1]; at PqsR) were 0.251 to 1 µM and at most 0.05 µM, respectively. For the same compound, the half-life at 1 μM in series [2] lay within 0.517 to 1 h.

In the case of `FC(F)(F)c1cc(NCc2ccc(-c3ccc(Cl)nc3)cn2)ccn1` [Compound 098, N-((6′-Chloro-[3,3′-bipyridin]-6-yl)methyl)-2-(trifluoromethyl)pyridin-4-amine], the half-life at 1 μM in series [2] is over 1 h. The compound also yielded a solubility at 5 min in series [3] of at least 100 µM. This compound also had a 50% inhibitory concentration (IC50) at PqsR of 0.051 to 0.25 µM.

Take `FC(F)(F)c1cc(NCc2ccc(-c3ccc(Oc4ccccc4)nc3)cn2)ccn1` [Compound 100, N-((6′-Phenoxy-[3,3′-bipyridin]-6-yl)methyl)-2-(trifluoromethyl)pyridin-4-amine]: the half-life at 1 μM in series [2] was in the range of 0.517 to 1 h. In series [3], the solubility at 5 min was over 25 µM. At PqsR, the concentration for half-maximal inhibition (IC50) was 0.051 to 0.25 µM.

As to `FC(F)(F)c1cc(NCc2ccc(-c3cccc(Oc4ccccc4)c3)cn2)ccn1` [Compound 103, N-((5-(3-Phenoxyphenyl)pyridin-2-yl)methyl)-2-(trifluoromethyl)pyridin-4-amine], the IC50 lay within 1 to 5 µM in series [1] and 0.251 to 1 µM on PqsR. The half-life at 1 μM in series [2] lay in the range of 0.517 to 1 h.

For the compound `FC(F)(F)c1cc(NCc2cc(-c3ccc(Oc4ccccc4)cc3)no2)ccn1` [Compound 139, N-((3-(4-phenoxyphenyl)isoxazol-5-yl)methyl)-2-(trifluoromethyl)pyridin-4-amine], the half-life at 1 μM in series [2] is 0.517 to 1 h. The IC50 on PqsR is at most 0.05 µM.

On to `CC(C)Oc1ccc(-c2ncc(CNc3cc(Cl)nc(C(F)(F)F)c3)cn2)cc1Cl` [Compound 166], for which the IC50 in series [1] is at most 0.25 µM; on PqsR, at most 0.05 µM. The solubility at 5 min in series [3] was over 25 µM.

As to `FC(F)(F)c1cc(SCc2nc3cc(Sc4ccccc4)ccc3[nH]2)ccn1` [Compound 176, 5-(phenylthio)-2-(((2-(trifluoromethyl)pyridin-4-yl)thio)methyl)-1H-benzo[d]imidazole], the half-maximal inhibitory concentration (IC50) was 0.251 to 1 µM in series [1] and at most 0.05 µM on PqsR. This compound showed a solubility at 5 min in series [3] of over 10 µM.

As to `FC(F)(F)c1cc(OCc2nc3cc(Oc4ccccc4)ccc3[nH]2)ccn1` [Compound 177, 5-phenoxy-2-(((2-(trifluoromethyl)pyridin-4-yl)oxy)methyl)-1H-benzo[d]imidazole], the IC50 in series [1] was in the range of 1 to 5 µM; at PqsR, 0.251 to 1 µM. The compound also displayed a solubility at 5 min in series [3] of over 25 µM.

As for `COC(=O)c1ccc(Oc2ccc3[nH]c(CSc4ccnc(C(F)(F)F)c4)nc3c2)cc1` [Compound 179, methyl 4-((2-(((2-(trifluoromethyl)pyridin-4-yl)thio)methyl)-1H-benzo[d]imidazol-5-yl)oxy)benzonate], the figures for the half-inhibitory concentration (IC50) (in series [1]; at PqsR) were 1 to 5 µM and 0.251 to 1 µM, respectively. The same compound had a solubility at 5 min in series [3] of over 10 µM.

As to `Fc1cc2nc(CSc3ccnc(C(F)(F)F)c3)[nH]c2cc1Cl` [Compound 180, 6-chloro-5-fluoro-2-(((2-(trifluoromethyl)pyridin-4-yl)thio)methyl)-1H-benzo[d]imidazole], the half-inhibitory concentration (IC50) in series [1] fell in the range of 1 to 5 µM; at PqsR, 0.251 to 1 µM. For the same compound, in series [3], the solubility at 5 min is over 50 µM.

As to `FC(F)(F)c1cc(NCc2nc3cc(Oc4ccccc4)ccc3[nH]2)ccn1` [Compound 182, N-((5-phenoxy-1H-benzo[d]imidazol-2-yl)methyl)-2-(trifluoromethyl)pyridin-4-amine], the figures for the concentration for half-maximal inhibition (IC50) (in series [1]; at PqsR) were 0.251 to 1 µM and at most 0.05 µM, respectively. In addition, the solubility at 5 min in series [3] was over 50 µM.

With `Nc1cc(SCc2nc3cc(Oc4ccccc4)ccc3[nH]2)cc(C(F)(F)F)n1` [Compound 183, 4-(((5-phenoxy-1H-benzo[d]imidazol-2-yl)methyl)thio)-6-(trifluoromethyl)pyridin-2-amine], the IC50 in series [1] was at most 0.25 µM; at PqsR it was at most 0.05 µM. Also, in series [3], the solubility at 5 min is over 25 µM.

One may read the IC50 as the concentration needed to halve the response being measured. Usually solubility stands for the concentration that dissolves in the medium under given conditions. Higher therefore signals a readily soluble substance.
